One data set concerns Escherichia coli. Nature of the data set: Disc diffusion antibacterial assay. The note with it: read-out: Diameter of Zone of Inhibition. A general note: Agar diffusion results depend on both activity and mobility in agar.
The next data set concerns Shigella flexneri. As to the kind of experiment: microbe, parasite or virus in culture. The note with it: read-out: Diameter of Zone of Inhibition.
For a further data set, the system named is Salmonella typhi. Nature of the data set: Disc diffusion antibacterial assay. The note with it: Salmonella enterica, read-out: Diameter of Zone of Inhibition. The format is cell-based.
The next data set has as its system Klebsiella spp. As to the kind of experiment: Disc diffusion antibacterial assay. The note with it: read-out: Diameter of Zone of Inhibition.
A further data set deals with Sarcina lutea. As to the kind of experiment: Disc diffusion antibacterial assay. The note with it: Micrococcus luteus, read-out: Diameter of Zone of Inhibition.
For the next data set, the system named is Staphylococcus aureus. Nature of the data set: Disc diffusion antibacterial assay. Particulars: read-out: Diameter of Zone of Inhibition.
A short description of data set [1]: DPPH free radical scavenging assay. The note with it: for DPPH scavenging activity: at 200 μg/mL; for IC50, DPPH free radical scavenging: from linear regression equation, 200 to 0.78125 μg/mL, 1 h in dark. The class given is biochemical. As to the method: To evaluate the free radical scavenging abilities of isolated phytochemicals on 1, 1-diphenyl-2-picrylhydrazyl, 2.0 mL of methanol solution of the compounds at serially diluted various concentrations (200 μg/mL to 0.78125 μg/mL) were mixed with 3.0 mL of a DPPH methanol solution (20 μg/mL) (DPPH). The mixture was kept in dark for 1 h. The antioxidant properties were assessed by comparing the decolorizing of a purple DPPH methanol solution by the compounds to that of butylated hydroxy anisole (BHA). (1) % Inhibition of free radical DPPH=1−Absorbance ofsample/Absorbance of the control reaction×100
Background: Loss of DPPH colour is used to gauge radical scavenging.

Data set [2] concerns two Gram-positive and four Gram-negative bacteria. Nature of the data set: Disc diffusion antibacterial assay, whole panel. The class given is cell-based. The note with it: 100 μg/disc.
The nature of data set [3]: Brine shrimp lethality bioassay (cytotoxicity). Particulars: in vivo, other: exposure of nauplii in simulated seawater, pH 8, from linear regression, 400–0.78125 μg/mL. Here is the method:
The brine shrimp lethality bioassay was conducted to evaluate the cytotoxic potential of the isolated pure compounds. An amount of 38 g of NaCl salt was dissolved in 1000 mL of distilled water to simulate seawater, along with NaOH to keep the pH constant (8.0). Brine shrimp eggs were hatched in artificial seawater to produce nauplii. Isolated compounds were dissolved in DMSO then diluted with simulated seawater into a series of concentrations (400–0.78125 μg/mL). As the reference standard, vincristine sulfate was employed at various doses (400–0.78125 μg/mL), and DMSO served as the negative control. The nauplii were counted visually, and then 5 mL of simulated saltwater was added to vials of the mixture at room temperature. (2) Mortality%=Number of nauplii death/Number of nauplii taken×100

These results are taken from paper PMC9503977, “Isolation, Characterization and Pharmacological Investigations of a New Phenolic Compound along with Four Others Firstly Reported Phytochemicals from Glycosmis cyanocarpa (Blume) Spreng” (Molecules, 2022).

The structures appear in SMILES notation. Values after ≈ are worked out from the molar mass of the structure shown. “Also recorded” adds a separate entry of the source.

In general, zone of inhibition refers to the extent of the growth-free halo in a diffusion test. Turning to `CC[C@H]1OC(=O)[C@H](C)[C@@H](O[C@H]2C[C@@](C)(OC)[C@@H](O)[C@H](C)O2)[C@H](C)[C@@H](O[C@@H]2O[C@H](C)C[C@H](N(C)C)[C@H]2O)[C@](C)(O)C[C@@H](C)CN(C)[C@H](C)[C@@H](O)[C@]1(C)O` [Azithromycin], the zone of inhibition at 100 µg/disc is 40 mm with Escherichia coli; 41 mm in the data set with Shigella flexneri; 34 mm with Salmonella typhi; 37 mm with Klebsiella spp.; 40 mm with Sarcina lutea; 39 mm in the data set on Staphylococcus aureus.
As for `Cc1cc(C(C)(C)C)c(O)c(C(C)(C)C)c1` [BHT, Butylated Hydroxytoluene], in data set [1], the DPPH scavenging activity was determined as 96.48% and the “IC50, DPPH free radical scavenging” value worked out at 6.06 µg/mL (≈ 27.5 µM).
In general, LC50 refers to the concentration lethal to half of the exposed cells or organisms. Lower therefore signals a more lethal substance. `COc1cc(CC(C)CO)ccc1O` (stereo not drawn) [Compound 1, 4-(3-hydroxy-2-methylpropyl)-2-methoxyphenol]: the zone of inhibition at 100 µg/disc with Escherichia coli came to 19 mm; in the data set on Salmonella typhi, 18 mm; in the data set with Sarcina lutea, 20 mm; with Staphylococcus aureus, 21 mm. Besides, in [2], the “antibacterial spectrum (in words)” value was “broad-spectrum antibacterial activity”. Also, the DPPH scavenging activity in data set [1] came to 92.96%. The “IC50, DPPH free radical scavenging” value in [1] was 9.97 µg/mL (≈ 50.8 µM). In data set [3], this compound displayed an LC50 of 1.08 µg/mL (≈ 5.5 µM).
As for `Cc1c[nH]c2ccccc12` [Compound 2, 3-methyl-1H-indole], the “antibacterial spectrum (in words)” value in data set [2] is recorded as “the most active against Staphylococcus aureus; also recorded: inhibited only Gram-positive bacteria”. Moreover, the figures for the zone of inhibition at 100 µg/disc with Sarcina lutea and in the data set with Staphylococcus aureus were 19 mm and 17 mm, respectively. Moreover, the “IC50, DPPH free radical scavenging” value in data set [1] stood at 12.37 µg/mL (≈ 94.3 µM). In addition, the LC50 in data set [3] is 1.02 µg/mL (≈ 7.78 µM).
Take `CC[C@H](/C=C/[C@@H](C)[C@H]1CC[C@H]2[C@@H]3CC=C4C[C@@H](O)CC[C@]4(C)[C@H]3CC[C@]12C)C(C)C` [Compound 4, Stigmasterol]: the “antibacterial spectrum (in words)” value in [2] is “inhibited only Gram-positive bacteria”. The zone of inhibition at 100 µg/disc with Sarcina lutea was 17 mm; in the data set with Staphylococcus aureus, 16 mm. The compound also came in with an LC50 in data set [3] of 1.92 µg/mL (≈ 4.65 µM).
The corresponding values for `CC[C@H](CC[C@@H](C)[C@H]1CC[C@H]2[C@@H]3CC=C4C[C@@H](O)CC[C@]4(C)[C@H]3CC[C@]12C)C(C)C` [Compound 5, β-sitosterol] are “inhibited only Gram-positive bacteria”, 15 mm, 17 mm and 1.37 µg/mL (≈ 3.3 µM).
Consider `C[C@H]1COc2c(N3CCN(C)CC3)c(F)cc3c(=O)c(C(=O)O)cn1c23` [Levofloxacin], for which the zone of inhibition at 100 µg/disc with Escherichia coli turned out to be 42 mm; with Shigella flexneri, 41 mm; in the data set with Salmonella typhi it was 36 mm; with Klebsiella spp., 38 mm; in the data set with Sarcina lutea, 39 mm; in the data set with Staphylococcus aureus, 40 mm.
As to `CN(C)[C@@H]1C(O)=C(C(N)=O)C(=O)[C@@]2(O)C(O)=C3C(=O)c4c(O)cccc4[C@@](C)(O)[C@H]3C[C@@H]12` [Tetracycline], the zone of inhibition at 100 µg/disc in the data set on Escherichia coli amounted to 41 mm; in the data set on Shigella flexneri, 38 mm; in the data set with Salmonella typhi, 41 mm; in the data set with Klebsiella spp., 39 mm; in the data set on Sarcina lutea it was 38 mm; in the data set with Staphylococcus aureus, 37 mm.
For `CC[C@]1(O)C[C@H]2CN(CCc3c([nH]c4ccccc34)[C@@](C(=O)OC)(c3cc4c(cc3OC)N(C=O)[C@H]3[C@@](O)(C(=O)OC)[C@H](OC(C)=O)[C@]5(CC)C=CCN6CC[C@]43[C@@H]65)C2)C1` [VS, Vincristine Sulphate], the LC50 in data set [3] is 0.91 µg/mL.
In the case of `CN[C@H](CC(C)C)C(=O)N[C@H]1C(=O)N[C@@H](CC(N)=O)C(=O)N[C@H]2C(=O)N[C@H]3C(=O)N[C@H](C(=O)N[C@H](C(=O)O)c4cc(O)cc(O)c4-c4cc3ccc4O)[C@H](O)c3ccc(c(Cl)c3)Oc3cc2cc(c3O[C@@H]2O[C@H](CO)[C@@H](O)[C@H](O)[C@H]2O[C@H]2C[C@](C)(N)[C@H](O)[C@H](C)O2)Oc2ccc(cc2Cl)[C@H]1O` [Vancomycin], the zone of inhibition at 100 µg/disc in the data set with Escherichia coli was found to be 42 mm; in the data set on Shigella flexneri, 38 mm; in the data set with Salmonella typhi it was 39 mm; in the data set on Klebsiella spp., 43 mm; in the data set on Sarcina lutea it was 42 mm; with Staphylococcus aureus it was 41 mm.
